Data taken from ChEMBL document CHEMBL5385858, “Identification of novel Pyrrolo[2,3-d]Pyrimidine-based KRAS G12C inhibitors with anticancer effects” (Eur J Med Chem, 2023).
Active and inactive are the calls of the source. The calls are words filed in the database; no cut-off is given here.

Assays:
MIA PaCa-2 = assay: Antiproliferative activity against human MIA PaCa-2 cells harboring KRAS G12C mutant assessed as inhibition of cell proliferation incubated for 3 days by CCK8 assay; assay type: functional, cell-based; conditions: MIA PaCa-2, 72 h
[1] = Toxicity in BALB/c-nu/nu mouse xenografted with human NCI-H358 cells assessed as morphological damage in spleen at 10 to 30 mg/kg, po qd treated for 20 days; assay type: organism-based; conditions: in vivo, 480 h, dose 10-30 mg/kg, time 20 day
NCI-H358 [2] = assay: Antitumor activity in human NCI-H358 cells xenografted in BALB/c-nu/nu mouse assessed as tumor growth inhibition at 10 mg/kg, po qd treated for 20 days relative to control; assay type: functional; conditions: Mus musculus, NCI-H358, 480 h, time 20 day, read-out: TGI
[3] = Toxicity in BALB/c-nu/nu mouse xenografted with human NCI-H358 cells assessed as histological change in kidney at 10 to 30 mg/kg, po qd treated for 20 days by H and E staining based analysis; assay type: organism-based; conditions: in vivo, 480 h, dose 10-30 mg/kg, time 20 day
NCI-H358 [4] = assay: Induction of apoptosis in human NCI-H358 cells assessed as early apoptotic cells at 1 uM incubated for 24 hrs by Annexin V-FITC/PI staining based flow cytometry (reference value: 5.4 %); assay type: functional
NCI-H358 [5] = assay: Induction of apoptosis in human NCI-H358 cells assessed as viable cells at 1 uM incubated for 24 hrs by Annexin V-FITC/PI staining based flow cytometry (reference value: 91.4 %); assay type: functional; conditions: read-out: Activity
[6] = C0 in ICR mouse at 30 mg/kg, po measured for 24 hrs by LC-MS/MS analysis; assay type: ADME, organism-based; conditions: in vivo
[7] = tested on: GTPase KRas (Homo sapiens), P01116 [G12C]; assay: Inhibition of KRAS G12C mutant in human NCI-H358 cells assessed as decrease in ERK phosphorylation incubated for 2 to 72 hrs by Western blot analysis; assay type: cell-based; conditions: time 2-72 hrs
[8] = tested on: GTPase KRas (Homo sapiens), P01116 [G12C]; assay: Inhibition of KRAS G12C mutant RBD in human NCI-H358 cells incubated for 24 hrs in presence of GTP by pull-down assay; assay type: cell-based; conditions: dose <= 1.0 µM
NCI-H358 [9] = assay: Induction of apoptosis in human NCI-H358 cells assessed as increase in cleaved PARP level upto 5 uM incubated for 24 hrs by Western blot analysis; assay type: functional, cell-based
[10] = Toxicity in BALB/c-nu/nu mouse xenografted with human NCI-H358 cells assessed as body weight loss at 10 to 30 mg/kg, po qd treated for 20 days; assay type: organism-based; conditions: in vivo, 480 h, dose 10-30 mg/kg, time 20 day
[11] = AUC (0 to t) in ICR mouse at 30 mg/kg, po measured for 24 hrs by LC-MS/MS analysis; assay type: ADME, organism-based; design: dose 30 mg/kg, time 24 hrs, route po; conditions: in vivo
NCI-H358 [12] = assay: Induction of apoptosis in human NCI-H358 cells assessed as early apoptotic cells at 0.5 uM incubated for 24 hrs by Annexin V-FITC/PI staining based flow cytometry (reference value: 5.4 %); assay type: functional
SOS1-KRAS = SOS1-KRAS (Homo sapiens, UniProt P01116, G12C); assay: Inhibition of KRAS G12C mutant/SOS1 (unknown origin) interaction incubated for 2 hrs in presence of GTP by HTRF assay; assay type: protein-complex assay
[13] = AUC (0 to infinity) in ICR mouse at 30 mg/kg, po measured for 24 hrs by LC-MS/MS analysis; assay type: ADME, organism-based; design: time 24 hrs, dose 30 mg/kg, route po; conditions: in vivo
[14] = C0 in ICR mouse at 3 mg/kg, iv measured for 24 hrs by LC-MS/MS analysis; assay type: ADME, organism-based; conditions: in vivo
NCI-H358 [15] = assay: Antiproliferative activity against human NCI-H358 cells harboring siKRAS assessed as inhibition of cell proliferation; assay type: functional, cell-based
NCI-H358 [16] = assay: Induction of apoptosis in human NCI-H358 cells assessed as late apoptotic cells at 0.1 uM incubated for 24 hrs by Annexin V-FITC/PI staining based flow cytometry (reference value: 1.32 %); assay type: functional
[17] = tested on: GTPase KRas (Homo sapiens), P01116 [G12C]; assay: Inhibition of KRAS G12C mutant in human NCI-H358 cells assessed as decrease in ERK phosphorylation at 0.1 uM incubated for 4 to 24 hrs by Western blot analysis; assay type: cell-based; conditions: time 4-24 hrs
[18] = Toxicity in BALB/c-nu/nu mouse xenografted with human NCI-H358 cells assessed as histological change in spleen at 10 to 30 mg/kg, po qd treated for 20 days by H and E staining based analysis; assay type: organism-based; conditions: in vivo, 480 h, dose 10-30 mg/kg, time 20 day
NCI-H358 [19] = assay: Antitumor activity in human NCI-H358 cells xenografted in BALB/c-nu/nu mouse assessed as tumor growth inhibition at 30 mg/kg, po qd treated for 20 days relative to control; assay type: functional; conditions: NCI-H358, 480 h, time 20 day, read-out: TGI
A549 = assay: Antiproliferative activity against human A549 cells harboring KRAS G12S mutant assessed as inhibition of cell proliferation incubated for 3 days by CCK8 assay; assay type: functional, cell-based; conditions: A549, 72 h
[20] = Oral bioavailability in ICR mouse at 30 mg/kg measured for 24 hrs by LC-MS/MS analysis; assay type: ADME, organism-based; conditions: in vivo
[21] = Half life in ICR mouse at 30 mg/kg, po measured for 24 hrs by LC-MS/MS analysis; assay type: ADME, organism-based; conditions: in vivo
NCI-H358 [22] = assay: Induction of apoptosis in human NCI-H358 cells assessed as late apoptotic cells at 1 uM incubated for 24 hrs by Annexin V-FITC/PI staining based flow cytometry (reference value: 1.32 %); assay type: functional
NCI-H358 [23] = assay: Antiproliferative activity against human NCI-H358 cells harboring KRAS G12C/Y96D mutant assessed as inhibition of cell proliferation incubated for 48 hrs by CCK8 assay; assay type: functional, cell-based
NCI-H358 [24] = assay: Induction of apoptosis in human NCI-H358 cells assessed as early apoptotic cells at 0.1 uM incubated for 24 hrs by Annexin V-FITC/PI staining based flow cytometry (reference value: 5.4 %); assay type: functional
[25] = Toxicity in BALB/c-nu/nu mouse xenografted with human NCI-H358 cells assessed as histological change in lung at 10 to 30 mg/kg, po qd treated for 20 days by H and E staining based analysis; assay type: organism-based; conditions: in vivo, 480 h, dose 10-30 mg/kg, time 20 day
NCI-H358 [26] = assay: Induction of apoptosis in human NCI-H358 cells assessed as late apoptotic cells at 0.3 uM incubated for 24 hrs by Annexin V-FITC/PI staining based flow cytometry (reference value: 1.32 %); assay type: functional
[27] = tested on: GTPase KRas (Homo sapiens), P01116 [G12C]; assay: Inhibition of KRAS G12C mutant in human […] cells assessed as decrease in ERK phosphorylation at 5 to 20 uM incubated for 4 hrs by Western blot analysis; assay type: cell-based; conditions: dose 5-20 µM

GTPase KRas (Homo sapiens), P01116 [G12C], sequence (P01116 whole entry G12C): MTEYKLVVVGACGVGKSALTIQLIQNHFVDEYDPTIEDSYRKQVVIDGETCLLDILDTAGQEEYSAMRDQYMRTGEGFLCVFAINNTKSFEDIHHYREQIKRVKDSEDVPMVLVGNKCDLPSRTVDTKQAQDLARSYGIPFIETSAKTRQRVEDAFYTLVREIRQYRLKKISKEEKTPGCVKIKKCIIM
SOS1-KRAS, sequence (P01116 whole entry G12C, looked up): as the sequence (P01116 whole entry G12C) above

- IC50 (MIA PaCa-2): 870 nM
- C0 [6]: 316 ng/mL
- inhibition [7]: Dose-Dependent Effect
- inhibition [8]: Dose-Dependent Effect
- AUC(0-t) at 24 h [11]: 600 ng·h/mL
- IC50 (SOS1-KRAS): 210 nM
- AUC(0-inf) [13]: 835 ng·h/mL
- C0 at 24 h [14]: 1960 ng/mL
- inhibition [17]: Active
- IC50 (A549): 29900 nM
- bioavailability [20]: 10.4%
- half-life [21]: 4.79 h
- inhibition [27]: Active
SMILES: C=CC(=O)N1CCN(c2nc(OC[C@@]34CCCN3C[C@H](F)C4)nc3c2cc(-c2cccc4cccc(C)c24)n3C)C[C@@H]1CC#N
- Activity [1]: Non-Toxic
- inhibition in vivo at 10 mg/kg (NCI-H358 [2]): 65.4%
- Activity [3]: Non-Toxic
- Activity (NCI-H358 [4]): 22.4%
- viability at 1 µM (NCI-H358 [5]): 71.2%
- Activity (NCI-H358 [9]): Active
- Activity [10]: Non-Toxic
- Activity (NCI-H358 [12]): 14%
- inhibition (NCI-H358 [15]): Active
- Activity (NCI-H358 [16]): 3.71%
- Activity [18]: Non-Toxic
- inhibition in vivo at 30 mg/kg (NCI-H358 [19]): 84%
- Activity (NCI-H358 [22]): 5.34%
- inhibition (NCI-H358 [23]): Active
- Activity (NCI-H358 [24]): 10.5%
- Activity [25]: Non-Toxic
- Activity (NCI-H358 [26]): 3.93%
